Measured values taken from patent US20090238761A1, “Novel Aryl Piperazine Derivatives With Medical Utility” (Universita Degli Studi Di Siena, priority 2005, published 2009).

Row | SMILES | melting point [°C]
1 | Cc1cccc(N2CCN(CCCCNC(=O)c3ccccc3)CC2)n1 | 102 to 103
2 | Cc1cccc(N2CCN(CCCCNC(=O)c3cc4ccccc4o3)CC2)c1C | 151 to 152
3 | O=C(NCCCCN1CCN(c2ccccc2)CC1)c1cc2ccccc2o1 | 149 to 150
4 | O=C(NCCCCN1CCN(c2cnc3ccccc3c2)CC1)c1cc2ccccc2cn1 | 153 to 154
5 | O=C(NCCCCN1CCN(c2cnc3ccccc3c2)CC1)c1ccccc1 | 124 to 125
6 | COc1cccc(N2CCN(CCCCNC(=O)c3cc4ccccc4o3)CC2)c1 | 104 to 105
7 | O=C(NCCCCN1CCN(c2ccccc2)CC1)c1cccnc1 | 119 to 120
8 | COc1cccc(N2CCN(CCCCNC(=O)c3ccccc3)CC2)n1 | 120 to 121
9 | Cc1cccc(N2CCN(CCCCNC(=O)c3cc4ccccc4o3)CC2)n1 | 107 to 109

Continued, values first:

Row | melting point [°C] | SMILES
10 | 155 to 156 | Cc1cccc(N2CCN(CCCCN3CCn4c(cc5ccccc54)C3=O)CC2)c1 [Compound 1-11]
11 | 180 to 181 | O=C1c2cc3ccccc3n2CCN1CCCCN1CCN(c2cccc(Cl)c2)CC1 [Compound 1-9, 2-[4-[4-(3-Chlorophenyl)piperazin-1-yl]butyl]-3,4-dihydropyrazino[1,2-a]indol-1(2H)-one]
12 | 126 to 127 | Cc1cccc(N2CCN(CCCCNC(=O)c3ccccc3)CC2)c1 [Compound 1-46, N-(4-(4-m-Tolylpiperazin-1-yl)butyl)benzamide]
13 | 111 to 112 | COc1cccc(N2CCN(CCCCNC(=O)c3ccccc3)CC2)c1 [Compound 1-45, N-(4-(4-(3-Methoxyphenyl)piperazin-1-yl)butyl)benzamide]
14 | 94 to 95 | Cc1cccc(N2CCN(CCCCCOc3cc4ccccc4cn3)CC2)c1 [Compound 1-12, 3-[5-(4-m-Tolylpiperazin-1-yl)pentyloxy]isoquinoline]
